Measurements reported in ChEMBL document CHEMBL4270514, “Design, synthesis and biological evaluation of novel xanthine oxidase inhibitors bearing a 2-arylbenzo[b]furan scaffold” (Eur J Med Chem, 2018).
The source made the active and inactive calls. No cut-off for these calls is given here.

How the values were obtained:
[1] = target: T1, Xanthine dehydrogenase/oxidase (Bos taurus, UniProt P80457); experiment: Inhibition of bovine xanthine oxidase using xanthine as substrate preincubated for 3 mins followed by substrate addition and measured for every 15 secs for 7 mins by spectrophotometric analysis
T1 sequence (P80457 whole entry): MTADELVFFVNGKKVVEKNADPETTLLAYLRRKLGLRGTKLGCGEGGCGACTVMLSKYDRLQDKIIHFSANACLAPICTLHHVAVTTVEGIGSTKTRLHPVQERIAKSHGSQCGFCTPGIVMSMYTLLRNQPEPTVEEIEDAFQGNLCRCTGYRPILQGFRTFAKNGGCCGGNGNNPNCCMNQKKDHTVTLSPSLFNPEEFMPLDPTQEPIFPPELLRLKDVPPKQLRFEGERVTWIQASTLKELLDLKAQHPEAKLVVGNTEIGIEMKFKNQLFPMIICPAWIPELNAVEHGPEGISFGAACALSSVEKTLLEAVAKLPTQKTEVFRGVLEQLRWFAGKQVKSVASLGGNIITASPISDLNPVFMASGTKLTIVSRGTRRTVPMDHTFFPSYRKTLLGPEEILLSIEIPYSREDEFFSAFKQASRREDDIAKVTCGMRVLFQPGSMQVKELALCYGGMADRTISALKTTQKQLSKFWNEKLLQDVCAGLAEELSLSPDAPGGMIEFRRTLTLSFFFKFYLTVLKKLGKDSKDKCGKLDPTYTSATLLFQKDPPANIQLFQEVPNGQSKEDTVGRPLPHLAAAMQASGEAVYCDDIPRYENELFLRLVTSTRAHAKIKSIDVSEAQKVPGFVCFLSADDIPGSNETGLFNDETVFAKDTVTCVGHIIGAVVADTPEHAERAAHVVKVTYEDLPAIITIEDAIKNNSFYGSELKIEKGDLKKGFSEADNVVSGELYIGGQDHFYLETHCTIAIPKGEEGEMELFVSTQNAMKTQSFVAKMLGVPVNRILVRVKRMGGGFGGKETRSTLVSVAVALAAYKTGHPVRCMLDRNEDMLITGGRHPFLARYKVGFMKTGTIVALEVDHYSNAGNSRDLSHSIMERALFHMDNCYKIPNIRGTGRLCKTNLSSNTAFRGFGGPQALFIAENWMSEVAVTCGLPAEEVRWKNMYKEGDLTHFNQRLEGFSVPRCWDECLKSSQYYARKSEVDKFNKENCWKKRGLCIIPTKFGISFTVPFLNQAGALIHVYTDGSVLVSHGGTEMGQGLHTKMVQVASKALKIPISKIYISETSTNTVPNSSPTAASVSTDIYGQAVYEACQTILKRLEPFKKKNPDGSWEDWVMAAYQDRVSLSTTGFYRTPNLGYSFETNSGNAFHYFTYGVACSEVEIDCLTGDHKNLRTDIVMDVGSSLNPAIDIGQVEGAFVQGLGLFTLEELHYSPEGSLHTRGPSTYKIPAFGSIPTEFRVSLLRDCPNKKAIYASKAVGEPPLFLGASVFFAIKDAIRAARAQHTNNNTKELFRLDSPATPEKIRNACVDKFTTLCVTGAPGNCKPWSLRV

[2] = Cytotoxicity against mouse RAW264.7 cells assessed as effect on cell viability at 1 to 10 uM after 24 hrs by MTT assay relative to control; assay type: cell-based; conditions: read-out: Activity
RAW264.7 [3] = experiment: Inhibition of LPS-induced ROS generation in mouse RAW264.7 cells at 1 to 10 uM after 24 hrs by H2DCFH staining-based fluorescence assay; assay type: functional, cell-based
[4] = Antioxidant activity assessed as DPPH radical scavenging activity after 30 mins by spectrophotometric analysis; assay type: functional
RAW264.7 [5] = experiment: Inhibition of LPS-induced ROS generation in mouse RAW264.7 cells at 10 uM after 24 hrs by H2DCFH staining-based fluorescence assay; assay type: functional, cell-based
RAW264.7 [6] = experiment: Inhibition of LPS-induced ROS generation in mouse RAW264.7 cells after 24 hrs by H2DCFH staining-based fluorescence assay; assay type: functional, cell-based
Mus musculus [7] = experiment: Hypouricemic effect in iv dosed ICR mouse model of potassium oxonate-induced acute hyperuricemia assessed as reduction in serum uric acids level measured after 1 hr post dose; assay type: functional, organism-based
Mus musculus [8] = experiment: Hypouricemic effect in ICR mouse model of potassium oxonate-induced acute hyperuricemia assessed as reduction in serum uric acid levels at 10 mg/kg, iv measured at 1 hr post dose; assay type: functional, organism-based
[9] = target: T1, Xanthine dehydrogenase/oxidase; experiment: Uncompetitive inhibition of bovine xanthine oxidase using xanthine as substrate preincubated for 3 mins followed by substrate addition by Lineweaver-Burk plot analysis
[10] = target: T1, Xanthine dehydrogenase/oxidase; experiment: Competitive inhibition of bovine xanthine oxidase using xanthine as substrate preincubated for 3 mins followed by substrate addition by Lineweaver-Burk plot analysis

| SMILES | IC50 [1] | IC50 [4] | Ki [9] | Ki [10] | viability at 24 h, up to 10 µM [2] | inhibition (RAW264.7 [3]) | inhibition (RAW264.7 [5]) | inhibition (RAW264.7 [6]) | Activity (Mus musculus [7]) | viability at 24 h, 10 µM [2] | Activity (Mus musculus [8]) |
| --- | --- | --- | --- | --- | --- | --- | --- | --- | --- | --- | --- |
| O=C(/C=C/c1ccc(O)c2oc(-c3ccc(O)c(O)c3)cc12)Nc1ccccc1 | 17.8 µM | 6.62 to 21.1 µM | – | – | > 85% | inactive | – | – | – | – | – |
| CCCOC(=O)/C=C/c1ccc(O)c2oc(-c3ccc(O)c(O)c3)cc12 | 19.3 µM | 6.62 to 21.1 µM | – | – | > 85% | – | Active | – | – | – | – |
| COc1ccc(NC(=O)/C=C/c2ccc(O)c3oc(-c4ccc(O)c(O)c4)cc23)cc1 | 42.2 µM | 6.62 to 21.1 µM | – | – | > 85% | – | – | Dose-dependent effect | – | – | – |
| O=C(/C=C/c1ccc(O)c2oc(-c3ccc(O)c(O)c3)cc12)O[C@H](Cc1ccc(O)c(O)c1)C(=O)O | – | – | – | – | > 85% | – | – | – | Dose-dependent effect | – | – |
| Oc1ncnc2[nH]ncc12 | – | – | – | – | – | – | – | – | – | – | Active |
| Cc1ccc(NC(=O)/C=C/c2ccc(O)c3oc(-c4ccc(O)c(O)c4)cc23)cc1 | 51.3 µM | 6.62 to 21.1 µM | – | – | > 85% | – | – | Dose-dependent effect | – | – | – |
| O=C(CCc1ccc(O)c2oc(-c3ccc(O)c(O)c3)cc12)Nc1ccc(O)cc1 | 38.6 µM | 6.62 to 21.1 µM | – | – | > 85% | inactive | – | – | – | – | – |
| CC(C)(C)NC(=O)/C=C/c1ccc(O)c2oc(-c3ccc(O)c(O)c3)cc12 | 45.2 µM | 6.62 to 21.1 µM | – | – | > 85% | – | – | Dose-dependent effect | – | – | – |
| CC(C)OC(=O)/C=C/c1ccc(O)c2oc(-c3ccc(O)c(O)c3)cc12 | 24.2 µM | 6.62 to 21.1 µM | – | – | > 85% | inactive | – | – | – | – | – |
| O=C(CCc1ccc(O)c2oc(-c3ccc(O)c(O)c3)cc12)N1CCOCC1 | > 100 µM | 6.62 to 21.1 µM | – | – | > 85% | inactive | – | – | – | – | – |
| O=C(/C=C/c1ccc(O)c2oc(-c3ccc(O)c(O)c3)cc12)N1CCOCC1 | > 100 µM | 6.62 to 21.1 µM | – | – | > 85% | inactive | – | – | – | – | – |
| O=C(/C=C/c1ccc(O)c2oc(-c3ccc(O)c(O)c3)cc12)Nc1ccc(Cl)cc1 | > 100 µM | 6.62 to 21.1 µM | – | – | > 85% | – | – | Dose-dependent effect | – | – | – |
| C=CCNC(=O)/C=C/c1ccc(O)c2oc(-c3ccc(O)c(O)c3)cc12 | 18.2 µM | 6.62 to 21.1 µM | – | – | > 85% | inactive | – | – | – | – | – |
| O=C(/C=C/c1ccc(O)c2oc(-c3ccc(O)c(O)c3)cc12)Nc1ccc(Br)cc1 | > 100 µM | 6.62 to 21.1 µM | – | – | > 85% | – | – | Dose-dependent effect | – | – | – |
| C=CCNC(=O)CCc1ccc(O)c2oc(-c3ccc(O)c(O)c3)cc12 | 46.8 µM | 6.62 to 21.1 µM | – | – | > 85% | – | – | – | – | – | – |
| O=C(/C=C/c1ccc(O)c2oc(-c3ccc(O)c(O)c3)cc12)N1CCCCC1 | 21.2 µM | 6.62 to 21.1 µM | – | – | > 85% | – | – | Dose-dependent effect | – | – | – |
| O=C(/C=C/c1ccc(O)c2oc(-c3ccc(O)c(O)c3)cc12)Nc1ccc(F)cc1 | 83.8 µM | 6.62 to 21.1 µM | – | – | > 85% | – | – | Dose-dependent effect | – | – | – |

Second part, led by results:

| IC50 [1] | IC50 [4] | Ki [9] | Ki [10] | SMILES | viability at 24 h, up to 10 µM [2] | inhibition (RAW264.7 [3]) | inhibition (RAW264.7 [5]) | inhibition (RAW264.7 [6]) | Activity (Mus musculus [7]) | viability at 24 h, 10 µM [2] | Activity (Mus musculus [8]) |
| --- | --- | --- | --- | --- | --- | --- | --- | --- | --- | --- | --- |
| 11 µM | 6.62 to 21.1 µM | – | – | O=C(/C=C/c1ccc(O)c2oc(-c3ccc(O)c(O)c3)cc12)Nc1ccc(O)cc1 | – | inactive | – | – | – | > 85% | – |
| 11.5 µM | 6.62 to 21.1 µM | – | – | CNC(=O)CCc1ccc(O)c2oc(-c3ccc(O)c(O)c3)cc12 | > 85% | inactive | – | – | – | – | – |
| 9.76 µM | 6.62 to 21.1 µM | – | – | O=C(O)CCc1ccc(O)c2oc(-c3ccc(O)c(O)c3)cc12 | > 85% | inactive | – | – | – | – | – |
| 13.9 µM | 6.62 to 21.1 µM | – | – | CC(C)NC(=O)/C=C/c1ccc(O)c2oc(-c3ccc(O)c(O)c3)cc12 | > 85% | – | – | Dose-dependent effect | – | – | – |
| 15.6 µM | 6.62 to 21.1 µM | – | – | O=C(/C=C/c1ccc(O)c2oc(-c3ccc(O)c(O)c3)cc12)NCc1ccccc1 | > 85% | – | Active | – | – | – | – |
| 6.55 µM | 6.62 to 21.1 µM | – | – | COC(=O)/C=C/c1ccc(O)c2oc(-c3ccc(O)c(O)c3)cc12 | > 85% | – | – | Dose-dependent effect | – | – | – |
| 4.45 µM | 6.62 to 21.1 µM | 13.1 µM | 3.52 µM | CNC(=O)/C=C/c1ccc(O)c2oc(-c3ccc(O)c(O)c3)cc12 | > 85% | – | – | Dose-dependent effect | Dose-dependent effect | – | – |
| 15.5 µM | 6.62 to 21.1 µM | – | – | CCOC(=O)/C=C/c1ccc(O)c2oc(-c3ccc(O)c(O)c3)cc12 | > 85% | – | – | Dose-dependent effect | – | – | – |
| 16.1 µM | – | – | – | O=C(O)/C=C/c1ccc(O)c2oc(-c3ccc(O)c(O)c3)cc12 [TOURNEFOLIC ACID A] | > 85% | – | – | Dose-dependent effect | – | – | – |
| 13.5 µM | 6.62 to 21.1 µM | – | – | CCNC(=O)/C=C/c1ccc(O)c2oc(-c3ccc(O)c(O)c3)cc12 | – | inactive | – | – | – | > 85% | – |
